Test results reported in PubChem BioAssay (NCI).
Values joined by “and” are separate entries in the source; they are usually repeats but may differ in a detail not shown here. Identical values can stand only once.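 Exposure lasted 48 hours, with cells grown in 96-well plates and compounds tested at five concentrations. GI50 is the concentration that inhibits growth by half. TGI marks complete inhibition of growth.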

Key:
Experiment in all cases: growth of human tumour cells (NCI), 48 h
[1] = test system: UO-31 renal
[2] = test system: NCI/ADR-RES ovarian
[3] = test system: UACC-62 melanoma
[4] = test system: MDA-MB-435
[5] = test system: OVCAR-8 ovarian
[6] = test system: MDA-MB-231 breast
[7] = test system: DMS 114 small cell lung
[8] = test system: DLD-1 colon

In the case of O=C(c1ccccc1)c1c2n(c3c1cc(O)c1ccccc13)CCN2, the GI50 [1] is reported as 16.2 µM, the TGI [1] is reported as 31.3 µM and the GI50 [2] is reported as 23.5 µM. For the same compound, the TGI [2] was > 100 µM, the GI50 [3] was 5.15 µM and the TGI [3] was 17.4 µM. For the same compound, the GI50 [4] was 1.99 µM, the TGI [4] was 3.73 µM and the GI50 [5] was 2.7 µM. For the same compound, the TGI [5] was 7.67 µM, the GI50 [6] was 2.13 µM and the TGI [6] was 4.51 µM.

For COc1cc(/C=C2\CC3C4CCC5=CC(=O)CC[C@]5(C)C4CC[C@]3(C)C2=O)ccc1OCCN1CCCCC1 (stereo not given in full), the GI50 [1] was 7.87 µM, the TGI [1] was > 100 µM and the GI50 [2] was 4.62 µM. For the same compound, the TGI [2] was > 100 µM, the GI50 [3] was 2.39 µM and the TGI [3] was 5.84 µM. For the same compound, the GI50 [4] was 1.97 µM, the TGI [4] was 4.28 µM and the GI50 [5] was 15.9 µM. For the same compound, the TGI [5] was 62.5 µM, the GI50 [6] was 1.85 µM and the TGI [6] was 5.03 µM.

Work on N/C(=N\C(N)=N\c1nc2ccccc2s1)c1ccnc(Br)c1 yielded a GI50 [1] of 3.56 µM, a TGI [1] of 84 µM and a GI50 [2] of 2.62 µM. The TGI [2] was 7.95 µM, the GI50 [3] was 4.47 µM and the TGI [3] was > 100 µM. For the same compound, the GI50 [4] was 2.1 µM, the TGI [4] was 7.32 µM and the GI50 [5] was 10.3 µM. The TGI [5] was > 100 µM, the GI50 [6] was 9.13 µM and the TGI [6] was > 100 µM.

In the case of COc1ccc(Nc2ncccc2C(=O)NCc2cn(Cc3cccc(Oc4ccccc4)c3)nn2)c(OC)c1, the GI50 [1] is reported as 5.54 µM, the TGI [1] is reported as > 100 µM and the GI50 [2] is reported as 2.12 µM. For the same compound, the TGI [2] was 35.5 µM, the GI50 [3] was 1.19 µM and the TGI [3] was > 29.6 µM. It also gave a GI50 [4] of 0.24 µM, a TGI [4] of 0.707 µM and a GI50 [5] of 3.81 µM. For the same compound, the TGI [5] was > 100 µM, the GI50 [6] was 3.63 µM and the TGI [6] was > 28.1 µM.

For COc1ccc(/C=C/C(=O)c2ccccc2)cc1OC, the TGI [1] was 27.2 µM and 27.3 µM, the GI50 [2] was 8.33 µM and the TGI [2] was > 100 µM and 93.1 µM. For the same compound, the GI50 [3] was 11.7 µM, the TGI [3] was 27.1 µM and 27.3 µM and the GI50 [4] was 6.89 µM. For the same compound, the TGI [4] was 14.6 µM and 25.2 µM, the TGI [5] was 39.6 µM and 39.2 µM and the TGI [6] was 38.1 µM and 52.6 µM.

In the case of Oc1[nH]c2ccccc2c1/C=c1/ccc2c(c1)N=C(c1cc(F)cc(F)c1)N=2, the GI50 [1] is reported as 3.42 µM, the TGI [1] is reported as 20.1 µM and the GI50 [2] is reported as 4.18 µM. For the same compound, the TGI [2] was 17.7 µM, the GI50 [3] was 4.18 µM and the TGI [3] was 20.3 µM. For the same compound, the GI50 [4] was 1.92 µM, the TGI [4] was 5.08 µM and the GI50 [5] was 4.56 µM. For the same compound, the TGI [5] was 33.3 µM, the GI50 [6] was 3.63 µM and the TGI [6] was 19.5 µM.

CCN(CC)CCNC(=O)C(Cl)=C1C(Cl)=C(Cl)C(Cl)=C1Cl was tested, and the GI50 [1] was 6.88 µM, the TGI [1] was 26 µM and the GI50 [2] was 2.98 µM. The TGI [2] was > 100 µM, the GI50 [3] was 2.18 µM and the TGI [3] was 12.4 µM. The GI50 [4] was 2.24 µM, the TGI [4] was 6.54 µM and the GI50 [5] was 2.81 µM. For the same compound, the TGI [5] was > 100 µM, the GI50 [6] was 3.83 µM and the TGI [6] was 31.3 µM.

For Cc1ccnc(NC(c2ccccc2)c2ccc3cccnc3c2O)c1 (stereo not given), the GI50 [1] was 1.3 µM, the TGI [1] was 14.6 µM and the GI50 [2] was 2.47 µM. For the same compound, the TGI [2] was 14.9 µM, the GI50 [3] was 4.42 µM and the TGI [3] was 87.9 µM. It also gave a GI50 [4] of 4.18 µM, a TGI [4] of 30.5 µM and a GI50 [5] of 3.23 µM. The TGI [5] was 16.3 µM, the GI50 [6] was 5.65 µM and the TGI [6] was 97.1 µM.

With CSc1nc(SC)c2c(C)cn(C3OC(C)C(O)C(O)C3O)c2n1 (stereo not given) the TGI [1] was > 100 µM, the TGI [2] was > 100 µM and the TGI [3] was > 100 µM. For the same compound, the TGI [4] was > 100 µM, the TGI [5] was > 100 µM and the TGI [6] was > 100 µM.

CCCCCCn1c2c(c3c(O)cccc31)C(=O)c1ccccc1-2 gave a GI50 [1] of 16.1 µM, a TGI [1] of 31.2 µM and a GI50 [2] of 18 µM. The TGI [2] was 33 µM, the GI50 [3] was 17.5 µM and the TGI [3] was 31.7 µM. The GI50 [4] was 20.3 µM, the TGI [4] was 44.9 µM and the GI50 [5] was 17.4 µM. For the same compound, the TGI [5] was 36.7 µM, the GI50 [6] was 16.3 µM and the TGI [6] was 33.4 µM.

NNc1ncnc2cccc(Cl)c12 was tested, and the TGI [1] was > 100 µM, the TGI [2] was > 100 µM and the TGI [3] was > 100 µM. The TGI [5] was > 100 µM and the TGI [6] was > 100 µM.

In the case of COC1/C=C/OC2(C)Oc3c(C)c(O)c4c(O)c(c(C=NOC(c5ccccc5)c5ccccc5)c(O)c4c3C2=O)NC(=O)/C(C)=C/C=C/C(C)C(O)C(C)C(O)C(C)C(OC(C)=O)C1C (stereo not given), the GI50 [1] is reported as 1.65 µM, the TGI [1] is reported as 7.74 µM and the GI50 [2] is reported as 1.67 µM. It also gave a TGI [2] of 6.19 µM, a GI50 [3] of 0.935 µM and a TGI [3] of 1.97 µM. The GI50 [4] was 1.18 µM, the TGI [4] was 3.01 µM and the GI50 [5] was 1.56 µM. It also gave a TGI [5] of 4.64 µM, a GI50 [6] of 1.35 µM and a TGI [6] of 3.49 µM.

In the case of Clc1ccc(Nc2ncnc3c2sc2ncccc23)c(Cl)c1, the GI50 [1] is reported as < 0.01 µM, the TGI [1] is reported as 4.32 µM and the GI50 [2] is reported as 0.0139 µM. The TGI [2] was > 100 µM, the GI50 [3] was 0.0279 µM and the TGI [3] was 8.37 µM. The GI50 [4] was 0.0482 µM, the TGI [4] was > 100 µM and the GI50 [5] was < 0.0135 µM. For the same compound, the TGI [5] was > 100 µM, the GI50 [6] was > 100 µM and the TGI [6] was > 100 µM.

C=C1CCC2(C(C)=O)COC1(C)O2 (stereo not given) was tested, and the TGI [1] was > 100 µM, the TGI [7] was > 100 µM and the TGI [3] was > 100 µM. The TGI [5] was > 100 µM and the TGI [8] was > 100 µM.

COc1cc(-c2ccc(=O)oc2C#Cc2ccccc2)cc(OC)c1OC was tested, and the GI50 [1] was 9.1 µM, the TGI [1] was > 100 µM and the GI50 [2] was > 100 µM. For the same compound, the TGI [2] was > 100 µM, the GI50 [3] was 11.6 µM and the TGI [3] was > 100 µM. The GI50 [4] was 14.6 µM, the TGI [4] was > 100 µM and the GI50 [5] was 52.5 µM. For the same compound, the TGI [5] was > 100 µM, the GI50 [6] was 12.4 µM and the TGI [6] was 35.8 µM.

With CN1c2ccccc2S(=O)(=O)n2c(COc3ccccc3)nnc21 the TGI [1] was > 100 µM, the TGI [2] was > 100 µM and the TGI [3] was > 100 µM. For the same compound, the TGI [4] was > 100 µM, the TGI [5] was > 100 µM and the TGI [6] was > 100 µM.

In the case of O=C1c2ccccc2-c2ccccc2C1(Cl)Cl, the GI50 [1] is reported as 1.12 µM, the TGI [1] is reported as 2.41 µM and the GI50 [2] is reported as 0.398 µM. It also gave a TGI [2] of 1.85 µM, a GI50 [3] of 1.66 µM and a TGI [3] of 3.34 µM. The GI50 [4] was 0.197 µM, the TGI [4] was 0.372 µM and the GI50 [5] was 0.334 µM. The TGI [5] was 1.26 µM, the GI50 [6] was 1.36 µM and the TGI [6] was 3.63 µM.

C=C(C)C1CCC2(C(=O)O)CCC3(C)C(CCC4C5(C)CCC(O)C(C)(C)C5CCC43C)C12 (stereo not given) was tested, and the TGI [1] was 24.5 µM, the TGI [2] was 31.5 µM and the TGI [3] was 32.2 µM. The TGI [4] was 48.4 µM, the TGI [5] was 20.7 µM and the TGI [6] was 10.7 µM.

For O=C(O)C1C2CCC(O2)C1C(=O)NCc1cccnc1 (stereo not given), the TGI [1] was > 100 µM, the TGI [2] was > 100 µM and the TGI [3] was > 100 µM. The TGI [4] was > 100 µM and the TGI [6] was > 100 µM.

With O=C(Nc1ccc(Cl)cc1)c1cc2ccccc2cc1OP(=O)(O)O the GI50 [1] was 3.75 µM, the TGI [1] was > 100 µM and the GI50 [2] was 3.51 µM. The TGI [2] was > 100 µM, the GI50 [3] was 2.66 µM and the TGI [3] was > 100 µM. The GI50 [4] was 3.27 µM, the TGI [4] was 32.3 µM and the GI50 [5] was 4.73 µM. For the same compound, the TGI [5] was > 100 µM, the GI50 [6] was 3.01 µM and the TGI [6] was 16.6 µM.

In the case of O=C(Nc1nc(-c2ccccc2Cl)cs1)c1cc(-c2ccc(Cl)cc2)nc2ccc(Cl)cc12, the GI50 [1] is reported as 2.46 µM, the TGI [1] is reported as 52.6 µM and the GI50 [2] is reported as 1.73 µM. For the same compound, the TGI [2] was > 100 µM, the GI50 [3] was 2.47 µM and the TGI [3] was 26 µM. It also gave a GI50 [4] of 1.71 µM, a TGI [4] of 4.72 µM and a GI50 [5] of 1.19 µM. It also gave a TGI [5] of 16.2 µM, a GI50 [6] of 2.27 µM and a TGI [6] of 15.2 µM.
